Source: ChEMBL document CHEMBL1201862, “PubChem BioAssay data set” (2004)
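Grown in 96-well plates, cells were treated for 48 hours with each compound at five concentrations. Insufficient inhibition: endpoint recorded as highest concentration tested. GI50: concentration for 50% inhibition of growth.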 Active and inactive are the calls of the source. No stated cut-off is given here; in the data, active = GI50 up to about 1.1 µM and inactive = higher. Where a SMILES comes first, the peptide text is derived from it. The star is where a group is joined. OSu = O=C1CCC(=O)N1O*; OBn = c1ccc(CO*)cc1; Bn = c1ccc(C*)cc1

What was measured:
Assay in all cases: NCI anticancer screen, dose series, 48 h
OVCAR-8 = test system: OVCAR-8
K562 = test system: K562
OVCAR-3 = test system: OVCAR-3
COLO 205 = test system: COLO 205
EKVX = test system: EKVX
HCC 2998 = test system: HCC 2998
UO-31 = test system: UO-31
NCI-H23 = test system: NCI-H23
CCRF-CEM = test system: CCRF-CEM
MOLT-4 = test system: MOLT-4
SF-539 = test system: SF-539
SK-MEL-2 = test system: SK-MEL-2
UACC-62 = test system: UACC-62
OVCAR-4 = test system: OVCAR-4
KM12 = test system: KM12
SF-295 = test system: SF-295
SN12C = test system: SN12C
NCI-H460 = test system: NCI-H460
HCT-15 = test system: HCT-15
SK-MEL-28 = test system: SK-MEL-28

SMILES	GI50 (OVCAR-8)	GI50 (K562)	GI50 (OVCAR-3)	GI50 (COLO 205)	GI50 (EKVX)	GI50 (HCC 2998)	GI50 (UO-31)	GI50 (NCI-H23)	GI50 (CCRF-CEM)	GI50 (MOLT-4)	GI50 (SF-539)	GI50 (SK-MEL-2)	GI50 (UACC-62)	GI50 (OVCAR-4)	GI50 (KM12)	GI50 (SF-295)	GI50 (SN12C)	GI50 (NCI-H460)	GI50 (HCT-15) [µM]	GI50 (SK-MEL-28)
CN1CCc2c1nc(-c1ccc([N+](=O)[O-])cc1)c1c2N(C)CC1	> 100 µM (inactive)	46 µM (inactive)	8.15 µM (inactive)	54.6 µM (inactive)	> 100 µM (inactive)	> 100 µM (inactive)	33.1 µM (inactive)	> 100 µM (inactive)	> 100 µM (inactive)	91.2 µM (inactive)	> 100 µM (inactive)	> 100 µM (inactive)	> 100 µM (inactive)	> 100 µM (inactive)	30.9 µM (inactive)	> 100 µM (inactive)	> 100 µM (inactive)	> 100 µM (inactive)	99.5	
Oc1ccc(Cl)cc1C1=Nn2c(COc3ccc4c(c3)CCCC4)nnc2SC1	14.9 µM (inactive)	10.5 µM (inactive)	12.6 µM (inactive)	16 µM (inactive)	15.9 µM (inactive)		10.5 µM (inactive)	11.4 µM (inactive)	17 µM (inactive)	11 µM (inactive)	16.7 µM (inactive)	15.4 µM (inactive)	12.4 µM (inactive)	1.44 µM (inactive)	14.6 µM (inactive)	14 µM (inactive)	6.28 µM (inactive)	14 µM (inactive)	17.9	0.129 µM (active)
C/C=C1\C=C(OC)CN(CCc2c[nH]c3ccccc23)C1	> 100 µM (inactive)	72.3 µM (inactive)	53.5 µM (inactive)	34.3 µM (inactive)	60.7 µM (inactive)	18 µM (inactive)	75 µM (inactive)	> 100 µM (inactive)	> 100 µM (inactive)	> 100 µM (inactive)	> 100 µM (inactive)	43.3 µM (inactive)	41.3 µM (inactive)	39.5 µM (inactive)	52.2 µM (inactive)	27.9 µM (inactive)	59.6 µM (inactive)	26 µM (inactive)	56.6	
CCOC(=O)C1C(c2cc(OC)c(O)c(OC)c2)c2cc3c(cc2OC1(C)O)OCO3 (stereo not given)	> 100 µM (inactive)	> 100 µM (inactive)	65.3 µM (inactive)	> 100 µM (inactive)	> 100 µM (inactive)		41.8 µM (inactive)	66.5 µM (inactive)	> 100 µM (inactive)	35 µM (inactive)	> 100 µM (inactive)	> 100 µM (inactive)	43.9 µM (inactive)	57.8 µM (inactive)		35.2 µM (inactive)	88.5 µM (inactive)	48.2 µM (inactive)	46.6	60.7 µM (inactive)
Cn1ncc2c(=O)[nH]c(-c3ccccc3)nc21	> 100 µM (inactive)	> 100 µM (inactive)		> 100 µM (inactive)	> 100 µM (inactive)	> 100 µM (inactive)	> 100 µM (inactive)	> 100 µM (inactive)	> 100 µM (inactive)	> 100 µM (inactive)	> 100 µM (inactive)	> 100 µM (inactive)	> 100 µM (inactive)	> 100 µM (inactive)	> 100 µM (inactive)	> 100 µM (inactive)	> 100 µM (inactive)		> 100	> 100 µM (inactive)
COc1ccc(C2C(=O)C(Cl)N2Nc2nc(C)cc(O)n2)cc1OC (stereo not given)	26.3 µM (inactive)	22 µM (inactive)	10.2 µM (inactive)	51.2 µM (inactive)	56.8 µM (inactive)	42.6 µM (inactive)	29.9 µM (inactive)	25.3 µM (inactive)	5.58 µM (inactive)	18.7 µM (inactive)	24 µM (inactive)	22.6 µM (inactive)	28.4 µM (inactive)	30.8 µM (inactive)	39.6 µM (inactive)		21.7 µM (inactive)	26.8 µM (inactive)	20.2	43.3 µM (inactive)
CC(=N/NC(=S)N1CCCCCC1)/C(C)=N\NC(=S)N1CCCCCC1	15.7 µM (inactive)	13.2 µM (inactive)	5.6 µM (inactive)	5.43 µM (inactive)	3.85 µM (inactive)	3.12 µM (inactive)	3.75 µM (inactive)	4.83 µM (inactive)		> 100 µM (inactive)	20.7 µM (inactive)	1.97 µM (inactive)	4.29 µM (inactive)	1.79 µM (inactive)	4.59 µM (inactive)	4.93 µM (inactive)	1.91 µM (inactive)	4.38 µM (inactive)	4.34	1.88 µM (inactive)
O=c1ccn(C2OC(CN(O)CCC3C(O)C(CO)OC3n3ccc(=O)[nH]c3=O)C(O)C2O)c(=O)[nH]1 (stereo not given)	> 100 µM (inactive)	> 100 µM (inactive)	> 100 µM (inactive)	> 100 µM (inactive)	> 100 µM (inactive)	> 100 µM (inactive)	> 100 µM (inactive)	> 100 µM (inactive)				> 100 µM (inactive)		> 100 µM (inactive)	> 100 µM (inactive)	> 100 µM (inactive)	> 100 µM (inactive)	> 100 µM (inactive)	> 100	
CCOC(=O)c1c(NC(=S)NCc2ccccc2)sc2c1CCN(C)C2	82.2 µM (inactive)	21.7 µM (inactive)	36.5 µM (inactive)	46.1 µM (inactive)	78 µM (inactive)		64.4 µM (inactive)	65.5 µM (inactive)	17.6 µM (inactive)	20.4 µM (inactive)	69.2 µM (inactive)	39.5 µM (inactive)	> 100 µM (inactive)		24.4 µM (inactive)	57.3 µM (inactive)	42.7 µM (inactive)	40.8 µM (inactive)	68.1	
[N-]=[N+]=NC1(c2ccccc2)C(=O)Nc2ccccc2C1=O (stereo not given)		29.4 µM (inactive)	35 µM (inactive)	71.4 µM (inactive)		57.8 µM (inactive)	22.1 µM (inactive)	34.9 µM (inactive)	27.3 µM (inactive)	21.7 µM (inactive)	36.8 µM (inactive)	24.4 µM (inactive)	19.1 µM (inactive)	54.7 µM (inactive)	30.1 µM (inactive)	56.4 µM (inactive)	48.8 µM (inactive)	37.5 µM (inactive)	33.8	56.2 µM (inactive)
COc1ccc2c(c1)C/C(=C\c1ccc(O)c(OC)c1)C2=O	> 100 µM (inactive)	> 100 µM (inactive)	> 100 µM (inactive)		> 100 µM (inactive)	> 100 µM (inactive)	> 100 µM (inactive)	> 100 µM (inactive)		> 100 µM (inactive)	> 100 µM (inactive)		> 100 µM (inactive)	> 100 µM (inactive)			> 100 µM (inactive)	> 100 µM (inactive)	> 100	> 100 µM (inactive)
NC1CC(=O)c2sc(I)cc21 (stereo not given)	> 100 µM (inactive)	74 µM (inactive)	> 100 µM (inactive)	> 100 µM (inactive)	> 100 µM (inactive)	> 100 µM (inactive)	> 100 µM (inactive)		37.4 µM (inactive)	71.9 µM (inactive)	> 100 µM (inactive)	> 100 µM (inactive)	> 100 µM (inactive)		> 100 µM (inactive)		> 100 µM (inactive)	69.8 µM (inactive)	35.8	> 100 µM (inactive)
CN1C(CC(O)c2ccccc2)CCCC1CC(O)(c1ccccc1)c1ccccc1 (stereo not given)	20.8 µM (inactive)	29 µM (inactive)	15.6 µM (inactive)	16.4 µM (inactive)	26.4 µM (inactive)	22.9 µM (inactive)	8.36 µM (inactive)	16.7 µM (inactive)	19.8 µM (inactive)	17.5 µM (inactive)	13.6 µM (inactive)		21 µM (inactive)		18.5 µM (inactive)	16.9 µM (inactive)	17.8 µM (inactive)		16.5	16 µM (inactive)
CCCOC(=O)CNC(=O)OC(C)(C)C	> 100 µM (inactive)	> 100 µM (inactive)	> 100 µM (inactive)	> 100 µM (inactive)	> 100 µM (inactive)	> 100 µM (inactive)	> 100 µM (inactive)	> 100 µM (inactive)	> 100 µM (inactive)		> 100 µM (inactive)	> 100 µM (inactive)	> 100 µM (inactive)	> 100 µM (inactive)	> 100 µM (inactive)	> 100 µM (inactive)		> 100 µM (inactive)	> 100	> 100 µM (inactive)
O=C1OC(c2ccccc2)=N/C1=C\c1cccnc1	> 100 µM (inactive)	34.8 µM (inactive)	> 100 µM (inactive)		> 100 µM (inactive)	> 100 µM (inactive)	> 100 µM (inactive)	> 100 µM (inactive)	29.2 µM (inactive)	2.84 µM (inactive)	> 100 µM (inactive)	> 100 µM (inactive)	> 100 µM (inactive)	> 100 µM (inactive)	> 100 µM (inactive)	> 100 µM (inactive)		> 100 µM (inactive)	> 100	> 100 µM (inactive)
CC(C)CC(NC(=O)C(N)CCC(=O)OCc1ccccc1)C(=O)NC(COCc1ccccc1)C(=O)NC(Cc1ccccc1)C(=O)ON1C(=O)CCC1=O (stereo not given) (H-E(OBn)LS(Bn)F-OSu; configuration not given here)	31.6 µM (inactive)				32.1 µM (inactive)		23.6 µM (inactive)	26.4 µM (inactive)	26.6 µM (inactive)	25.5 µM (inactive)		30.8 µM (inactive)	26.1 µM (inactive)	27.8 µM (inactive)	32.1 µM (inactive)	24.4 µM (inactive)	29.8 µM (inactive)	32.7 µM (inactive)		22.1 µM (inactive)
